This note sets out measurements from PubChem BioAssay AID298 (DTP/NCI, 2004).

Where “and” joins values, the source holds several entries; their conditions need not be identical. Identical values can stand only once. Inconclusive results are not listed.

For this test, the system named is MX-1 breast xenograft, intrarenal, nude mice, tumor weight. The test is described as follows: NCI In Vivo Anticancer Drug Screen. Data for tumor model Human Mammary Carcinoma MX-1 Xenograft (intrarenal inoculation) in NU/NU BALB/C (nude) mice. To be noted: endpoint: mean tumor weight change, higher = larger tumour. The procedure, abridged:
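Mice w/ transplanted tumors, drug vs vehicle; endpoint survival or tumor size; value = T/C.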
In general terms: Xenograft models place foreign cells or tissue in a host animal.

Where [1] appears, read: dose: 150.0 mg/kg/injection, schedule: Q04DX003 (ip), vehicle: water.
Setting [2] is: dose: 300.0 mg/kg/injection, schedule: Q04DX003 (ip), vehicle: water.
[3] abbreviates: dose: 300.0 mg/kg/injection, schedule: Q04DX003 (sc), vehicle: saline with Tween-80.
Where [4] appears, read: dose: 600.0 mg/kg/injection, schedule: Q04DX003 (sc), vehicle: saline with Tween-80.
[5] abbreviates: dose: 150.0 mg/kg/injection, schedule: Q04DX003 (ip), vehicle: Klucel (hydroxypropylcellulose) (HPC).
The mark [6] stands for this setting: dose: 12.5 mg/kg/injection, schedule: Q01DX010 (sc), vehicle: Klucel (hydroxypropylcellulose) (HPC).
Where [7] appears, read: dose: 25.0 mg/kg/injection, schedule: Q01DX010 (sc), vehicle: Klucel (hydroxypropylcellulose) (HPC).
The mark [8] stands for this setting: dose: 50.0 mg/kg/injection, schedule: Q01DX010 (sc), vehicle: Klucel (hydroxypropylcellulose) (HPC).

Turning to `O=S1(=O)CS(=O)(=O)OCCO1`, the T/C (dose: 12.5 mg/kg/injection, schedule: Q04DX003 (sc), vehicle: Klucel (hydroxypropylcellulose) (HPC)) is 72 % of control; the T/C (dose: 25.0 mg/kg/injection, schedule: Q04DX003 (sc), vehicle: Klucel (hydroxypropylcellulose) (HPC)) was 23 % of control; the T/C (dose: 37.5 mg/kg/injection, schedule: Q04DX003 (sc), vehicle: Klucel (hydroxypropylcellulose) (HPC)) was 42 % of control; the T/C (dose: 50.0 mg/kg/injection, schedule: Q04DX003 (sc), vehicle: Klucel (hydroxypropylcellulose) (HPC)) was 2 % of control; the T/C (dose: 150.0 mg/kg/injection, schedule: Q04DX003 (sc), vehicle: Klucel (hydroxypropylcellulose) (HPC)) is 16 % of control and 21 % of control; the T/C (dose: 300.0 mg/kg/injection, schedule: Q04DX003 (sc), vehicle: Klucel (hydroxypropylcellulose) (HPC)) was 11 % of control.

Consider `CS(C)(O)NC(N)=O`, for which the T/C is 119 % of control under setting [1]; 154 % of control under setting [2]; 110 % of control (dose: 600.0 mg/kg/injection, schedule: Q04DX003 (ip), vehicle: water); 74 % of control (dose: 1200.0 mg/kg/injection, schedule: Q04DX003 (ip), vehicle: water).

As to `N=C1CCCS1`, the T/C is 108 % of control (dose: 18.75 mg/kg/injection, schedule: Q04DX003 (sc), vehicle: saline); 91 % of control (dose: 37.5 mg/kg/injection, schedule: Q04DX003 (sc), vehicle: saline); 124 % of control (dose: 75.0 mg/kg/injection, schedule: Q04DX003 (sc), vehicle: saline).

Take `Cc1cc(=NO)cc(C)n1O`: the T/C (dose: 300.0 mg/kg/injection, schedule: Q04DX003 (sc), vehicle: distilled water + alcohol) is 116 % of control; the T/C (dose: 1200.0 mg/kg/injection, schedule: Q04DX003 (sc), vehicle: distilled water + alcohol) is 90 % of control; the T/C (dose: 2400.0 mg/kg/injection, schedule: Q04DX003 (sc), vehicle: distilled water + alcohol) is 89 % of control.

On to `CN(C)c1ccc(C(=C2C=CC(=[N+](C)C)C=C2)c2ccc(N(C)C)cc2)cc1` (tested in a mixture with another compound), for which the T/C is, setting by setting: (dose: 15.0 mg/kg/injection, schedule: Q04DX003 (sc), vehicle: saline with Tween-80) 124 % of control; (dose: 30.0 mg/kg/injection, schedule: Q04DX003 (sc), vehicle: saline with Tween-80) 84 % of control; (dose: 60.0 mg/kg/injection, schedule: Q04DX003 (sc), vehicle: saline with Tween-80) 98 % of control; (dose: 120.0 mg/kg/injection, schedule: Q04DX003 (sc), vehicle: saline with Tween-80) 75 % of control; (dose: 150.0 mg/kg/injection, schedule: Q04DX003 (sc), vehicle: saline with Tween-80) 73 % of control.

In the case of `Nc1nc(=S)c2[nH]cnc2[nH]1`, the T/C (dose: 1.6 mg/kg/injection, schedule: Q01DX010 (sc), vehicle: Klucel (hydroxypropylcellulose) (HPC)) was 50 % of control.

Regarding `COC(=O)NC1C(C)OC(OC2C/C=C(/C)C3C=CC4C(OC5CC(OC6CC(OC7CC(O)C(O)C(C)O7)C(OC7CC(O)C(OC)C(C)O7)C(C)O6)C(O)C(C)O5)C(C)CC(C)C4C3(C)/C(O)=C3\C(=O)OC4(CC(C)C(CO)=CC4/C=C\2C)C3=O)CC1(C)[N+](=O)[O-]` (stereo not drawn), the T/C reads like this: (dose: 75.0 mg/kg/injection, schedule: Q04DX003 (ip), vehicle: water) 198 % of control; under setting [1], 120 % of control; under setting [2], 73 % of control.

Consider `CN=C(N)c1ccc(N=C(N)c2ccc(C(N)=Nc3ccc(C(N)=NC)cc3)cc2)cc1`, for which the T/C by setting is: (dose: 15.0 mg/kg/injection, schedule: Q04DX003 (ip), vehicle: saline) 96 % of control; (dose: 30.0 mg/kg/injection, schedule: Q04DX003 (ip), vehicle: saline) 118 % of control.

Turning to `NS(=O)(=O)OCCCCCCCOS(N)(=O)=O`, the T/C (dose: 150.0 mg/kg/injection, schedule: Q04DX003 (ip), vehicle: saline with Tween-80) was -40 % of control.

Consider `NC(Cc1ccc(N(CCCl)Cc2ccccc2)cc1)C(=O)O` (stereo not drawn), for which the T/C is 6 % of control and 14 % of control (dose: 100.0 mg/kg/injection, schedule: Q04DX003 (ip), vehicle: saline with Tween-80); 3 % of control (dose: 120.0 mg/kg/injection, schedule: Q04DX003 (ip), vehicle: saline with Tween-80); 7 % of control and -15 % of control (dose: 200.0 mg/kg/injection, schedule: Q04DX003 (ip), vehicle: saline with Tween-80); -90 % of control (dose: 333.33 mg/kg/injection, schedule: Q04DX003 (ip), vehicle: saline with Tween-80).

As for `CN(C)CCCN=c1c2ccccc2n(C)c2[nH]c(=O)n(C)c(=O)c12`, the T/C by setting is: (dose: 25.0 mg/kg/injection, schedule: Q04DX003 (ip), vehicle: saline) 112 % of control; (dose: 50.0 mg/kg/injection, schedule: Q04DX003 (ip), vehicle: saline) 82 % of control.

Consider `CN(C)C1C(=O)C(C(=O)NP(=O)(NCCCO)N(CCCl)CCCl)=C(O)C2(O)C(=O)C3=C(O)c4c(O)cccc4C(C)(O)C3CC12` (stereo not drawn), for which the T/C was -100 % of control and -98 % of control under setting [3]; -100 % of control under setting [4].

As for `Cc1ccoc1`, the T/C was 102 % of control (dose: 50.0 mg/kg/injection, schedule: Q01DX010 (ip), vehicle: saline with Tween-80); 97 % of control (dose: 100.0 mg/kg/injection, schedule: Q01DX010 (ip), vehicle: saline with Tween-80); 104 % of control (dose: 200.0 mg/kg/injection, schedule: Q01DX010 (ip), vehicle: saline with Tween-80).

For the compound `O=C(Nc1cccc(Cl)c1)ON1C(=O)C2C(C1=O)C1(Cl)C(Cl)C(Cl)C2(Cl)C1(Cl)Cl` (stereo not drawn), the T/C under setting [3] was 91 % of control; the T/C under setting [4] was 100 % of control; the T/C (dose: 1200.0 mg/kg/injection, schedule: Q04DX003 (sc), vehicle: saline with Tween-80) was 91 % of control; the T/C (dose: 2400.0 mg/kg/injection, schedule: Q04DX003 (sc), vehicle: saline with Tween-80) is 114 % of control.

As for `CCOC(=O)/C=C/C(=O)N1CCN(C(=O)/C=C/C(=O)OCC)C(C)C1` (stereo not drawn), the T/C under setting [5] is 103 % of control; the T/C (dose: 300.0 mg/kg/injection, schedule: Q04DX003 (ip), vehicle: Klucel (hydroxypropylcellulose) (HPC)) was 83 % of control; the T/C (dose: 600.0 mg/kg/injection, schedule: Q04DX003 (ip), vehicle: Klucel (hydroxypropylcellulose) (HPC)) is 77 % of control.

Turning to `CC1Oc2cc3c(-c4c(O)cc(O)c5c(O)c6c(cc45)OC(C)C(C)C6=O)c(O)cc(O)c3c(O)c2C(=O)C1C` (stereo not drawn), the T/C reads like this: (dose: 9.0 mg/kg/injection, schedule: Q04DX003 (ip), vehicle: suspension in saline) 21 % of control; (dose: 12.0 mg/kg/injection, schedule: Q04DX003 (ip), vehicle: suspension in saline) 15 % of control.

For the compound `NC1=NC(=O)N2CC12` (stereo not drawn), the T/C is, setting by setting: (dose: 50.0 mg/kg/injection, schedule: Q04DX003 (sc), vehicle: saline) 106 % of control; (dose: 100.0 mg/kg/injection, schedule: Q04DX003 (sc), vehicle: saline) 116 % of control; (dose: 200.0 mg/kg/injection, schedule: Q04DX003 (sc), vehicle: saline) 86 % of control.

For the compound `COC(COC(=O)N1CCN(C=O)CC1)C1=C(N2CC2)C(=O)C(C)=C(N2CC2)C1=O` (stereo not drawn), the T/C (dose: 3.0 mg/kg/injection, schedule: Q04DX003 (ip), vehicle: saline) is 5 % of control and -16 % of control.

In the case of `CNc1nc(NC)nc(NC)n1`, the T/C reads like this: under setting [6], 156 % of control; under setting [7], 152 % of control; under setting [8], 122 % of control; (dose: 100.0 mg/kg/injection, schedule: Q01DX010 (sc), vehicle: Klucel (hydroxypropylcellulose) (HPC)) 83 % of control.

For the compound `CN(Cc1cnc2nc(N)nc(N)c2n1)c1c(Cl)cc(C(=O)NC(CCC(=O)O)C(=O)O)cc1Cl` (stereo not drawn), the T/C was 64 % of control under setting [6], 25 % of control under setting [7] and -67 % of control under setting [8].

In the case of `COc1ccc(S(=O)(=O)N/N=C/C(=O)O)cc1`, the T/C (dose: 25.0 mg/kg/injection, schedule: Q01DX010 (sc), vehicle: saline with Tween-80) is 79 % of control; the T/C (dose: 50.0 mg/kg/injection, schedule: Q01DX010 (sc), vehicle: saline with Tween-80) is 59 % of control; the T/C (dose: 100.0 mg/kg/injection, schedule: Q01DX010 (sc), vehicle: saline with Tween-80) was 8 % of control.

For `CC(=O)C(Cl)C(=O)c1c(C)[nH]n(-c2ccccc2)c1=O` (stereo not drawn), the T/C under setting [5] is 103 % of control.
